Assay results taken from patent US9062071B2, “Substituted piperidines as HDM2 inhibitors” (Merck Sharp & Dohme Corp, priority 2011, dated 2015).

The molecules below were run against HDM2 protein (Homo sapiens, UniProt Q00987) (assay: fluorescence polarization screening assay (FP IC50)). Settings: class symbols.
Sequence of HDM2 protein (Q00987 whole entry): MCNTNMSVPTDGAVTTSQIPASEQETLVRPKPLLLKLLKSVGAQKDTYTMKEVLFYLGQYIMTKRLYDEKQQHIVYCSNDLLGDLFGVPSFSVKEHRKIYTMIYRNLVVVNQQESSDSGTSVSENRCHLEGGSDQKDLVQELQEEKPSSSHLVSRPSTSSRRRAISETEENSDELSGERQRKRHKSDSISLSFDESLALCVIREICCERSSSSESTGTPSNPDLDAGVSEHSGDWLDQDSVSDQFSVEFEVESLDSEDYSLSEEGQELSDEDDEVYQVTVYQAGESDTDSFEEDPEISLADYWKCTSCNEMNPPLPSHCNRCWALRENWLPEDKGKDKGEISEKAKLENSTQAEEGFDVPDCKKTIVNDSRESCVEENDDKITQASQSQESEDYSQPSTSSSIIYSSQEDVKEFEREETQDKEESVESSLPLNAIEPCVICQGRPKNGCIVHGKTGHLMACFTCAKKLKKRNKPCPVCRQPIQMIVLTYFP
Type: binding
Description: The compounds were evaluated to determine activity at the HDM2 protein by known methods such as the fluorescence polarization screening assay that measures the inhibitory concentration that achieves 50% of maximal activity (FP IC50) and the dissociation constant for inhibitor binding (FP Ki). [Zhang et al., J. Analytical Biochemistry 331: 138-146 (2004)].
`CCC[C@H]1N(C(=O)c2ncccc2C(F)(F)F)CCC[C@@]1(Oc1csc(C(F)(F)F)c1)C(=O)N1Cc2cc(F)ccc2C[C@H]1CCC(=O)O` [Compound A147, 3-[(3R)-7-fluoro-2-{[(2R,3S)-2-propyl-1-{[3-(trifluoromethyl)pyridin-2-yl]carbonyl}-3-{[5-(trifluoromethyl)thiophen-3-yl]oxy}piperidin-3-yl]carbonyl}-1,2,3,4-tetrahydroisoquinolin-3-yl]propanoic acid] was tested, and the IC50 was 1 to 100 nM.
`CCC[C@H]1N(C(=O)c2ncccc2C(F)(F)F)CCC[C@@]1(Oc1csc(C(F)(F)F)c1)C(=O)N1Cc2ccc(Cl)cc2C[C@@H]1CCC(=O)NS(C)(=O)=O` [Compound A148, 3-[(3S)-6-chloro-2-{[(2R,3S)-2-propyl-1-{[3-(trifluoromethyl)pyridin-2-yl]carbonyl}-3-{[5-(trifluoromethyl)thiophen-3-yl]oxy}piperidin-3-yl]carbonyl}-1,2,3,4-tetrahydroisoquinolin-3-yl]-N-(methylsulfonyl) propanamide] showed an IC50 of 1 to 100 nM.
`CCC[C@H]1N(C(=O)c2ncccc2C(F)(F)F)CCC[C@@]1(Oc1csc(C(F)(F)F)c1)C(=O)N1Cc2ccc(F)cc2C[C@@H]1C(=O)N1CCC(O)CC1` [Compound A149, 1-{[(3R)-6-fluoro-2-{[(2R,3S)-2-propyl-1-{[3-(trifluoromethyl)pyridin-2-yl]carbonyl}-3-{[5-(trifluoromethyl)thiophen-3-yl]oxy}piperidin-3-yl]carbonyl}-1,2,3,4-tetrahydroisoquinolin-3-yl]carbonyl}piperidin-4-ol] gave an IC50 of 1 to 100 nM.
`CCC[C@H]1N(C(=O)c2ncccc2C(F)(F)F)CCC[C@@]1(Oc1csc(C(F)(F)F)c1)C(=O)N1Cc2ccc(F)cc2C[C@@H]1C(=O)NCCO` [Compound A150, (3R)-6-fluoro-N-(2-hydroxyethyl)-2-{[(2R,3S)-2-propyl-1-{[3-(trifluoromethyl)pyridin-2-yl]carbonyl}-3-{[5-(trifluoromethyl)thiophen-3-yl]oxy}piperidin-3-yl]carbonyl}-1,2,3,4-tetrahydroisoquinoline-3-carboxamide] gave an IC50 of 1 to 100 nM.
For `CCC[C@H]1N(C(=O)c2ncccc2C(F)(F)F)CCC[C@@]1(Oc1csc(C(F)(F)F)c1)C(=O)N1Cc2ccc(Cl)cc2C[C@@H]1CN(C)C(=O)[C@@H](C)OC` [Compound A151, (2R)-N-{[(3R)-6-chloro-2-{[(2R,3S)-2-propyl-1-{[3-(trifluoromethyl)pyridin-2-yl]carbonyl}-3-{[5-(trifluoromethyl)thiophen-3-yl]oxy}piperidin-3-yl]carbonyl}-1,2,3,4-tetrahydroisoquinolin-3-yl]methyl}-2-methoxy-N-methylpropanamide], the IC50 was 1 to 100 nM.
With `CCC[C@H]1N(C(=O)c2ncccc2C(F)(F)F)CCC[C@@]1(Oc1csc(C(F)(F)F)c1)C(=O)N1Cc2ccc(Cl)cc2C[C@@H]1CN(C)C(=O)CC` [Compound A152, N-{[(3R)-6-chloro-2-{[(2R,3S)-2-propyl-1-{[3-(trifluoromethyl)pyridin-2-yl]carbonyl}-3-{[5-(trifluoromethyl)thiophen-3-yl]oxy}piperidin-3-yl]carbonyl}-1,2,3,4-tetrahydroisoquinolin-3-yl]methyl}-N-methylpropanamide] the IC50 was 1 to 100 nM.
Work on `CCC[C@H]1N(C(=O)c2ncccc2C(F)(F)F)CCC[C@@]1(Oc1csc(C(F)(F)F)c1)C(=O)N1Cc2ccc(F)cc2C[C@H]1C[C@H](C(=O)O)C(C)C` [Compound A153, (2S)-2-{[(3R)-6-fluoro-2-{[(2R,3S)-2-propyl-1-{[3-(trifluoromethyl)pyridin-2-yl]carbonyl}-3-{[5-(trifluoromethyl)thiophen-3-yl]oxy}piperidin-3-yl]carbonyl}-1,2,3,4-tetrahydroisoquinolin-3-yl]methyl}-3-methylbutanoic acid] yielded an IC50 of 1 to 100 nM.
In the case of `CCC[C@H]1N(C(=O)c2ncccc2C(F)(F)F)CCC[C@@]1(Oc1csc(C(F)(F)F)c1)C(=O)N1Cc2ccccc2C(C(=O)O)C1` (stereo partly drawn) [Compound A154, 2-{[(2R,3S)-2-propyl-1-{[3-(trifluoromethyl)pyridin-2-yl]carbonyl}-3-{[5-(trifluoromethyl)thiophen-3-yl]oxy}piperidin-3-yl]carbonyl}-1,2,3,4-tetrahydroisoquinoline-4-carboxylic acid], the IC50 is reported as 101 to 20000 nM.
In the case of `CCC[C@H]1N(C(=O)c2ncccc2C(F)(F)F)CCC[C@@]1(Oc1csc(C(F)(F)F)c1)C(=O)N1Cc2ccc(Cl)cc2C[C@@H]1CCCN1CCOCC1` [Compound A155, (3S)-6-chloro-3-(3-morpholin-4-ylpropyl)-2-{[(2R,3S)-2-propyl-1-{[3-(trifluoromethyl)pyridin-2-yl]carbonyl}-3-{[5-(trifluoromethyl)thiophen-3-yl]oxy}piperidin-3-yl]carbonyl}-1,2,3,4-tetrahydroisoquinoline], the IC50 is reported as 1 to 100 nM.
In the case of `CCC[C@H]1N(C(=O)c2ncccc2C(F)(F)F)CCC[C@@]1(Oc1csc(C(F)(F)F)c1)C(=O)N1Cc2ccc(Cl)cc2C[C@@H]1CCCN1CCC[C@H]1COC` [Compound A156, (3S)-6-chloro-3-{3-[(2S)-2-(methoxymethyl)pyrrolidin-1-yl]propyl}-2-{[(2R,3S)-2-propyl-1-{[3-(trifluoromethyl)pyridin-2-yl]carbonyl}-3-{[5-(trifluoromethyl)thiophen-3-yl]oxy}piperidin-3-yl]carbonyl}-1,2,3,4-tetrahydroisoquinoline], the IC50 is reported as 1 to 100 nM.
For `CCC[C@H]1N(C(=O)c2ncccc2C(F)(F)F)CCC[C@@]1(Oc1csc(C(F)(F)F)c1)C(=O)N1Cc2cc(F)c(F)cc2C[C@H]1CCC(=O)O` [Compound A157, 3-[(3R)-6,7-difluoro-2-{[(2R,3S)-2-propyl-1-{[3-(trifluoromethyl)pyridin-2-yl]carbonyl}-3-{[5-(trifluoromethyl)thiophen-3-yl]oxy}piperidin-3-yl]carbonyl}-1,2,3,4-tetrahydroisoquinolin-3-yl]propanoic acid], the IC50 was 1 to 100 nM.
In the case of `CCC[C@H]1N(C(=O)c2ncccc2C(F)(F)F)CCC[C@@]1(Oc1csc(C(F)(F)F)c1)C(=O)N1Cc2ccc(F)cc2C[C@H]1CN(C)C(=O)[C@@H](C)O` [Compound A158, (2R)-N-{[(3S)-6-fluoro-2-{[(2R,3S)-2-propyl-1-{[3-(trifluoromethyl)pyridin-2-yl]carbonyl}-3-{[5-(trifluoromethyl)thiophen-3-yl]oxy}piperidin-3-yl]carbonyl}-1,2,3,4-tetrahydroisoquinolin-3-yl]methyl}-2-hydroxy-N-methylpropanamide], the IC50 is reported as 101 to 20000 nM.
Work on `CCC[C@H]1N(C(=O)c2ncccc2C(F)(F)F)CCC[C@@]1(Oc1csc(C(F)(F)F)c1)C(=O)N1Cc2ccc(F)cc2C[C@H]1CN(C)C(=O)C(F)F` [Compound A159, 2,2-difluoro-N-{[(3S)-6-fluoro-2-{[(2R,3S)-2-propyl-1-{[3-(trifluoromethyl)pyridin-2-yl]carbonyl}-3-{[5-(trifluoromethyl)thiophen-3-yl]oxy}piperidin-3-yl]carbonyl}-1,2,3,4-tetrahydroisoquinolin-3-yl]methyl}-N-methylacetamide] yielded an IC50 of 101 to 20000 nM.
With `CCC[C@H]1N(C(=O)c2ncccc2C(F)(F)F)CCC[C@@]1(Oc1csc(C(F)(F)F)c1)C(=O)N1Cc2ccc(F)cc2C[C@H]1C(=O)N1CCN(C)CC1` [Compound A160, (3S)-6-fluoro-3-[(4-methylpiperazin-1-yl)carbonyl]-2-{[(2R,3S)-2-propyl-1-{[3-(trifluoromethyl)pyridin-2-yl]carbonyl}-3-{[5-(trifluoromethyl)thiophen-3-yl]oxy}piperidin-3-yl]carbonyl}-1,2,3,4-tetrahydroisoquinoline] the IC50 was 101 to 20000 nM.
